Experimental findings from publication PMC6688508 (Journal of medicinal chemistry, 2019) are described below.

Experiment [1] concerns the target T1, human D1 (Homo sapiens, UniProt P21728). The experiment is described as follows: BRET β-arrestin2 recruitment assay. Conditions: for β-arrestin2 recruitment activity in words: D1R BRET assay. (In BRET a luciferase serves as donor, and the signal depends on an acceptor being close.)
In experiment [2] the target is T1, human D1. The experiment is described as follows: D1R GS-mediated GS-cAMP accumulation assay. Conditions: for fold reduced potency in the GS-cAMP accumulation assay compared to 1: compared to compound 1; for GS-cAMP accumulation activity in words: D1R GloSensor assay. For orientation: Changes in cAMP serve as a functional read-out for many G protein-coupled receptors.

“Also recorded” adds a separate entry of the source.

T1 sequence (P21728 whole entry): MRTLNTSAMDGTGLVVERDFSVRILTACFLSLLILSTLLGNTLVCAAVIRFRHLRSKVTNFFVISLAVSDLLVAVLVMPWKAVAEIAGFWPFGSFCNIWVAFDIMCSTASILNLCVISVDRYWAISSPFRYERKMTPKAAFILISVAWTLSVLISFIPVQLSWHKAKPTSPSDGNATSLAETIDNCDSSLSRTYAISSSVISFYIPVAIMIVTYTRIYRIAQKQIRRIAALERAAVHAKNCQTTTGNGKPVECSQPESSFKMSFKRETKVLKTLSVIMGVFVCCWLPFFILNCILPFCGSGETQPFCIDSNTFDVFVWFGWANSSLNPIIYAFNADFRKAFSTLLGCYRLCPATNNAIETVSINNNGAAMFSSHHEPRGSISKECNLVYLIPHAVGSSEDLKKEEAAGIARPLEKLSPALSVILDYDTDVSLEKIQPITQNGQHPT

As to `Cc1cc(Oc2nccc3occc23)ccc1-c1c(C)nc2cnccn12` [Compound 4, 4-(3-Methyl-4-(2-methylimidazo[1,2-a]pyrazin-3-yl)phenoxy)-furo[3,2-c]pyridine], the “fold reduction in potency for β-arrestin2 recruitment compared to 1” value in experiment [1] (compared to compound 1) is 22 fold. Besides, the “fold reduced potency in the GS-cAMP accumulation assay compared to 1” value in experiment [2] was found to be 23 fold.

Consider `Cc1cc(Oc2nccc3occc23)ccc1-c1cccc2nccn12` [Compound 5, 4-(4-(Imidazo[1,2-a]pyridin-5-yl)-3-methylphenoxy)furo[3,2-c]-pyridine], for which, in experiment [2], the “fold reduced potency in the GS-cAMP accumulation assay compared to 1” value is reported as “approximately 10 fold”.

With `COC(=O)c1cccn2c(-c3ccc(Oc4nccc5occc45)cc3C)cnc12` [Compound 6, Methyl-3-(4-(furo[3,2-c]pyridin-4-yloxy)-2-methylphenyl)-imidazo[1,2-a]pyridine-8-carboxylate], the “β-arrestin2 recruitment activity in words” value in experiment [1] is on record as “no detectable β-arrestin2 recruitment activity”.

As for `Cc1cc(Oc2nccc3occc23)ccc1-c1nc(N)cnc1C` [Compound 7, 6-(4-(Furo[3,2-c]pyridin-4-yloxy)-2-methylphenyl)-5-methylpyrazin-2-amine], in experiment [1], the “β-arrestin2 recruitment activity in words” value is on record as “minimal β-arr2 recruitment”.

Take `CCOc1ncnc(C)c1-c1ccc(Oc2nccc3occc23)cc1C` [Compound 8, 4-(4-(4-Ethoxy-6-methylpyrimidin-5-yl)-3-methylphenoxy)furo-[3,2-c]pyridine]: in experiment [1], the “β-arrestin2 recruitment activity in words” value is reported as “not active in the β-arrestin2 recruitment assay”.

As to `Cc1cc(Oc2nccc3occc23)ccc1-c1c(C)cnnc1C` [Compound 9, 4-(4-(3,5-Dimethylpyridazin-4-yl)-3-methylphenoxy)furo[3,2-c]-pyridine], the “β-arrestin2 recruitment activity in words” value in experiment [1] was “not active in the β-arrestin2 recruitment assay”. For the same compound, it took 1 nM to reach a half-maximal effect in experiment [2] (EC50).

For `COc1ccc(-c2ccc(Oc3nccc4occc34)cc2C)c(C)n1` [Compound 11, 4-(4-(6-Methoxy-2-methylpyridin-3-yl)-3-methylphenoxy)furo-[3,2-c]pyridine], the “β-arrestin2 recruitment activity in words” value in experiment [1] was “inactive in the β-arrestin2 recruitment assay”.

In the case of `Cc1cc(Oc2nccc3occc23)ccc1-c1cncc(C(N)=O)c1` [Compound 12, 5-(4-(Furo[3,2-c]pyridin-4-yloxy)-2-methylphenyl)nicotinamide], in experiment [1], the “β-arrestin2 recruitment activity in words” value was “inactive in the β-arrestin2 recruitment assay”.

With `Cc1cc(Oc2nccc3occc23)ccc1-c1ccc(C#N)cn1` [Compound 13, 6-(4-(Furo[3,2-c]pyridin-4-yloxy)-2-methylphenyl)nicotinonitrile], the “β-arrestin2 recruitment activity in words” value in experiment [1] was “inactive in the β-arrestin2 recruitment assay”.

Turning to `Cc1cc(-c2c(C)ncc3nccn23)ccc1Oc1nccc2occc12` [Compound 14, 4-(2-Methyl-4-(6-methylimidazo[1,2-a]pyrazin-5-yl)phenoxy)-furo[3,2-c]pyridine], the “β-arrestin2 recruitment activity in words” value in experiment [1] was “completely eliminated β-arrestin2 recruitment activity”.

Take `Cc1ncc2nccn2c1-c1ccc(Oc2nccc3occc23)c(C)c1C` [Compound 15, 4-(2,3-Dimethyl-4-(6-methylimidazo[1,2-a]pyrazin-5-yl)-phenoxy)furo[3,2-c]pyridine]: the “β-arrestin2 recruitment activity in words” value in experiment [1] is “inactive in β-arrestin2 recruitment”.

For `Cc1ncc2nccn2c1-c1ccc(Oc2nccc3occc23)cc1C(F)(F)F` [Compound 17, 4-(4-(6-Methylimidazo[1,2-a]pyrazin-5-yl)-3-(trifluoromethyl)-phenoxy)furo[3,2-c]pyridine], the “β-arrestin2 recruitment activity in words” value in experiment [1] is “potent full agonist of both signaling pathways”. Moreover, the “GS-cAMP accumulation activity in words” value in experiment [2] is on record as “potent full agonist of both signaling pathways”.

Regarding `Cc1ncc2nccn2c1-c1ccc(Oc2nccc3occc23)c(C(F)(F)F)c1` [Compound 18, 4-(4-(6-Methylimidazo[1,2-a]pyrazin-5-yl)-2-(trifluoromethyl)-phenoxy)furo[3,2-c]pyridine], the “β-arrestin2 recruitment activity in words” value in experiment [1] is “completely devoid of activity in both the G protein and β-arrestin2 recruitment assays”. In experiment [2], the “GS-cAMP accumulation activity in words” value is “completely devoid of activity in both the G protein and β-arrestin2 recruitment assays”.

With `Cc1ncc2nccn2c1-c1cc(F)c(Oc2nccc3occc23)c(F)c1` [Compound 19, 4-(2,6-Difluoro-4-(6-methylimidazo[1,2-a]pyrazin-5-yl)-phenoxy)furo[3,2-c]pyridine], the “β-arrestin2 recruitment activity in words” value in experiment [1] is “eliminated β-arrestin2 recruitment activity”.

Regarding `Cc1cc(Nc2nccc3occc23)ccc1-c1c(C)ncc2nccn12` [Compound 20, N-(3-Methyl-4-(6-methylimidazo[1,2-a]pyrazin-5-yl)phenyl)furo-[3,2-c]pyridin-4-amine], in experiment [1], the “β-arrestin2 recruitment activity in words” value is listed as “only minimally active in the β-arrestin2 recruitment assay”.

For `Cc1cc(Oc2nccc3occ(C4CC4)c23)ccc1-c1c(C)ncc2nccn12` [Compound 26, 3-Cyclopropyl-4-(3-methyl-4-(6-methylimidazo[1,2-a]pyrazin-5-yl)phenoxy)furo[3,2-c]pyridine], the “β-arrestin2 recruitment activity in words” value in experiment [1] was “diminished β-arrestin2 recruitment activity”.

With `Cc1cc(Oc2cccc3occc23)ccc1-c1c(C)ncc2nccn12` [Compound 27, 5-(4-(Benzofuran-4-yloxy)-2-methylphenyl)-6-methylimidazo-[1,2-a]pyrazine], the “β-arrestin2 recruitment activity in words” value in experiment [1] is “inactivity for β-arrestin2 recruitment”.

Regarding `Cc1cc(Oc2nccc3ccccc23)ccc1-c1c(C)ncc2nccn12` [Compound 28, 1-(3-Methyl-4-(6-methylimidazo[1,2-a]pyrazin-5-yl)phenoxy)-isoquinoline], in experiment [1], the “β-arrestin2 recruitment activity in words” value is “inactive for β-arrestin2 recruitment”.

Take `Cc1cc(Oc2nccn3ccnc23)ccc1-c1c(C)ncc2nccn12` [Compound 31, 5-(4-(Imidazo[1,2-a]pyrazin-8-yloxy)-2-methylphenyl)-6-methylimidazo[1,2-a]pyrazine]: the “β-arrestin2 recruitment activity in words” value in experiment [1] is given as “β-arrestin2 recruitment was undetectable”.

Take `Cc1cc(Oc2nccc3[nH]ncc23)ccc1-c1c(C)ncc2nccn12` [Compound 32, 4-(3-Methyl-4-(6-methylimidazo[1,2-a]pyrazin-5-yl)phenoxy)-1H-pyrazolo[4,3-c]pyridine]: the “β-arrestin2 recruitment activity in words” value in experiment [1] is reported as “not recovered”.

`Cc1cc(Oc2ccccn2)ccc1-c1c(C)ncc2nccn12` [Compound 33, 6-Methyl-5-(2-methyl-4-(pyridin-2-yloxy)phenyl)imidazo[1,2-a]-pyrazine]: the “β-arrestin2 recruitment activity in words” value in experiment [1] is “very weak activity in the β-arrestin2 recruitment assay”.

Turning to `Cc1cc(Oc2ncccc2Br)ccc1-c1c(C)ncc2nccn12` [Compound 34, 5-(4-((3-bromopyridin-2-yl)oxy)-2-methylphenyl)-6-methylimidazo[1,2-a]pyrazine], the “β-arrestin2 recruitment activity in words” value in experiment [1] is “completely inactive in both pathways”. For the same compound, in experiment [2], the “GS-cAMP accumulation activity in words” value is “completely inactive in both pathways”.

With `Cc1cc(-c2cccc3nccn23)ccc1Oc1nccc2occc12` [Compound 37, 4-(4-(Imidazo[1,2-a]pyridin-5-yl)-2-methylphenoxy)furo[3,2-c]-pyridine], the “β-arrestin2 recruitment activity in words” value in experiment [1] was “eliminated β-arrestin2 recruitment activity”.

Regarding `Cc1c(Oc2nccc3occc23)ccc(-c2cccc3nccn23)c1C` [Compound 38, 4-(4-(Imidazo[1,2-a]pyridin-5-yl)-2,3-dimethylphenoxy)furo[3,2-c]pyridine], the “β-arrestin2 recruitment activity in words” value in experiment [1] was “β-arrestin2 recruitment was eliminated”.

Turning to `Cc1cc(Oc2nccc3occc23)cc(C)c1-c1cccc2nccn12` [Compound 39, 4-(4-(Imidazo[1,2-a]pyridin-5-yl)-3,5-dimethylphenoxy)furo[3,2-c]pyridine], the “β-arrestin2 recruitment activity in words” value in experiment [1] was “completely inactive”. The “GS-cAMP accumulation activity in words” value in experiment [2] was “completely inactive”.

As to `FC(F)(F)c1cc(-c2cccc3nccn23)ccc1Oc1nccc2occc12` [Compound 42, 4-(4-(Imidazo[1,2-a]pyridin-5-yl)-2-(trifluoromethyl)phenoxy)-furo[3,2-c]pyridine], in experiment [1], the “β-arrestin2 recruitment activity in words” value is “inactive in both G protein and β-arrestin2 recruitment assays”. Moreover, the “GS-cAMP accumulation activity in words” value in experiment [2] is “inactive in both G protein and β-arrestin2 recruitment assays”.

For the compound `Fc1cc(-c2cccc3nccn23)cc(F)c1Oc1nccc2occc12` [Compound 43, 4-(2,6-Difluoro-4-(imidazo[1,2-a]pyridin-5-yl)phenoxy)furo[3,2-c]pyridine], the “β-arrestin2 recruitment activity in words” value in experiment [1] is reported as “minimal β-arrestin2 recruitment”.

`FC(F)(F)c1cc(Oc2nccc3occ(C4CC4)c23)ccc1-c1cccc2nccn12` [Compound 44, 3-Cyclopropyl-4-(4-(imidazo[1,2-a]pyridin-5-yl)-3-(trifluoromethyl)phenoxy)furo[3,2-c]pyridine]: the “β-arrestin2 recruitment activity in words” value in experiment [1] is given as “abolished β-arrestin2 recruitment”.

Turning to `FC(F)(F)c1cc(Oc2nccc3ccccc23)ccc1-c1cccc2nccn12` [Compound 45, 1-(4-(Imidazo[1,2-a]pyridin-5-yl)-3-(trifluoromethyl)phenoxy)-isoquinoline], the “β-arrestin2 recruitment activity in words” value in experiment [1] is given as “β-arrestin2 recruitment still eliminated”.

In the case of `FC(F)(F)c1cc(Oc2nccc3ccsc23)ccc1-c1cccc2nccn12` [Compound 46, 7-(4-(Imidazo[1,2-a]pyridin-5-yl)-3-(trifluoromethyl)phenoxy)-thieno[2,3-c]pyridine], in experiment [1], the “β-arrestin2 recruitment activity in words” value was “minimal β-arr2 recruitment; also recorded: greatly weakened”.

On to `FC(F)(F)c1cc(Oc2nccn3cccc23)ccc1-c1cccc2nccn12` [Compound 47, 5-(4-(Pyrrolo[1,2-a]pyrazin-1-yloxy)-2-(trifluoromethyl)phenyl)-imidazo[1,2-a]pyridine], for which the “β-arrestin2 recruitment activity in words” value in experiment [1] is recorded as “completely abrogated”.

As for `FC(F)(F)c1cc(Oc2ccccn2)ccc1-c1cccc2nccn12` [Compound 49, 5-(4-(Pyridin-2-yloxy)-2-(trifluoromethyl)phenyl)imidazo[1,2-a]-pyridine], in experiment [1], the “β-arrestin2 recruitment activity in words” value is on record as “no activity in the β-arrestin2 pathway”.
